Consider three compounds from patent US20130323171A1, “RADIOLABELED BBN ANALOGS FOR PET IMAGING OF GASTRIN-RELEASING PEPTIDE RECEPTORS” (priority 2012, published 2013).

Each structure is given as a SMILES string. Square brackets hold non-standard residues; d marks the D form. Peptide text beside a SMILES is read from it. Sta = CC(C)C[C@H](N)[C@@H](O)CC(=O)O; 4Abz = Nc1ccc(C(=O)O)cc1

The IC50 is the concentration that inhibits the measured activity by half. Low readings indicate higher potency, high ones lower potency.

Data set [1] in a line: Mouse serum stability of the PET probes. In kind it is in vitro ADME. To be noted: 37° C., 1 h. On the procedure: The in vitro stability of the PET probes was evaluated by incubation with mouse serum (1 mL) at 37° C. for 1 h. The solutions were filtered using a NanoSep 10 K centrifuge (Pall Corp.) to isolate low-molecular-weight radiocomplexes. The samples were analyzed by the radio-HPLC, and the percentages of intact PET probe were determined by quantifying the peaks corresponding with the intact probe and degradation products.
More than 95% of the probes remained intact after 1 h of incubation in mouse serum at 37° C.

For the next data set, the target named is T1, GRPR (Homo sapiens, UniProt P30550).
T1 construct: endogenous in cells; host or cells: PC3 cells
Put plainly: Cell-binding assay: inhibition of ^125I-[Tyr4]BBN binding on PC3 cells. To be noted: 0.06 nM radioligand, 37° C., 1 h, n=4, mean±SD. Here is the method: The cell-binding assay was performed similarly as previously reported (18, 35). Briefly, the PC3 cells (3×10^4) were incubated with 0.06 nM ^125I-[Tyr4]BBN and varying concentrations of peptides in the binding buffer (RPMI 1640+2 mg/mL BSA+5.2 mg/mL HEPES) at 37° C. for 1 h. The cell-bound, residual radioactivity after washing was determined by gamma counting. […] The experiments were performed in quadruplicate.
All of these peptides inhibited the GRPR-binding of ^125I-[Tyr4]BBN on the PC3 cells in a concentration-dependent manner.

T1 sequence (P30550 whole entry): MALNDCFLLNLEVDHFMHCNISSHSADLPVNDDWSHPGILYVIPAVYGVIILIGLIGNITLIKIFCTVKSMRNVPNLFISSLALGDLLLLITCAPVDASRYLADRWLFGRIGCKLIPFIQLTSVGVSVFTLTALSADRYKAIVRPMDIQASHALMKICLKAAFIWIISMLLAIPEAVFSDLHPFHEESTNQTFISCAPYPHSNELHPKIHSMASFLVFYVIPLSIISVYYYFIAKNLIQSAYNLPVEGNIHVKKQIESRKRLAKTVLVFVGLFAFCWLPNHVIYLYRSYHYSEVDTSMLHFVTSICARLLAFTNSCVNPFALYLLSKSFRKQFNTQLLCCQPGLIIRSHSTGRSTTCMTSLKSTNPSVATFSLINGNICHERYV

As to `CSCC[C@H](NC(=O)[C@H](CC(C)C)NC(=O)[C@H](Cc1c[nH]cn1)NC(=O)CNC(=O)[C@@H](NC(=O)[C@H](C)NC(=O)[C@H](Cc1c[nH]c2ccccc12)NC(=O)[C@H](CCC(N)=O)NC(=O)c1ccc(NC(=O)CNC(=O)CCC(C(=O)O)N2CCN(CC(=O)O)CCN(CC(=O)O)CC2)cc1)C(C)C)C(N)=O` (single isomer, unassigned) [^64Cu-NODAGA-AMBA, metal not drawn], the “stability in mouse serum” value in data set [1] is “exhibited degradation”. `CSCC[C@H](NC(=O)[C@H](CC(C)C)NC(=O)[C@H](Cc1c[nH]cn1)NC(=O)CNC(=O)[C@@H](NC(=O)[C@H](C)NC(=O)[C@H](Cc1c[nH]c2ccccc12)NC(=O)[C@H](CCC(N)=O)NC(=O)c1ccc(NC(=O)CN)cc1)C(C)C)C(N)=O` [AMBA]: the IC50 at GRPR came to 0.17 ± 0.07 nM. The same measure, in the same setting: the figure for `CC(C)C[C@H](NC(=O)C[C@H](O)[C@H](CC(C)C)NC(=O)[C@H](Cc1c[nH]cn1)NC(=O)CNC(=O)[C@@H](NC(=O)[C@H](C)NC(=O)[C@H](Cc1c[nH]c2ccccc12)NC(=O)[C@H](CCC(N)=O)NC(=O)[C@@H](Cc1ccccc1)NC(=O)c1ccc(NC(=O)CN)cc1)C(C)C)C(N)=O` [RM1, G-4-aminobenzoyl-D-Phe-Gln-Trp-Ala-Val-Gly-His-Sta-Leu-NH2] (H-G[4Abz][dF]QWAVGH[Sta]L-NH2; N-terminus assumed) is 0.25 ± 0.04 nM.
